The test system of assay [1] is Csk-PS364. Briefly: Csk phosphoserine 364 level in forskolin-stimulated T cells. Type of assay: cell-based, human. Particulars: 25 μM, 12 hours. As for the experimental part: Antibodies. RI or RII were immunoprecipitated with polyclonal antibodies against human RI or human RII at a 3 μg/ml dilution (Santa Cruz Biotechnology). MEME3 or scrambled peptide was immunoprecipitated with 1.5 μl of anti-GFP antiserum (Invitrogen). Monoclonal (Transduction laboratories) or polyclonal antibodies (Santa Cruz Biotechnology) against human RIα and RIIα were used at a 1 μg ml^−1 or 0.5 μg ml^−1 ilution for Western blotting. Polyclonal antibodies against human Cα (Santa Cruz Biotechnology) and LAT (Upstate Biotechnology) were used at a 0.4 μg ml^−1 and a 1 μg ml^−1 dilution for Western blotting, respectively. Polyclonal antibodies against LckPY505 (Cell Signaling) were used at a 1:1000 dilution and polyclonal antibody raised towards PS364 in Csk were used as previously described (Yaqub et al., Biochem. J., 372: p 271-8, 2003). Polyclonal antibodies against StAR (Affinity BioReagents) were used at 1 μg ml^−1. […]
Peripheral blood T cells were treated with 25 μM M3-Arg11 or mock treated for 12 hours and stimulated with forskolin to activate the PKA-Csk inhibitory pathway. Subsequently, cell lysates were subjected to […], blotting onto a PVDF membranes and the Csk phosphoserine 364 levels were assessed by immunoblotting using phosphospecific antibodies to Csk-PS364 (FIG. 19, upper panel).

The target in assay [2] is PKA-RIα (Homo sapiens, UniProt P10644). The experiment in a line: Immunofluorescence of PKA-RIα localisation in human T cells. Type of assay: cell-based. On the set-up: endogenous in cells; host or cells: human peripheral blood CD3+ T cells. Particulars: 5 μM. The procedure:
Immunofluorescence analysis of cells was performed as previously described (Collas, P. et al., 1996, J. Cell Biol. 135, 1715-1725). RI was detected by using an anti-RI monoclonal antibody (Transduction Laboratories) as a primary antibody at a […] and Alexa-488 as a secondary antibody (1:600, Goat anti Mouse IgGs, Molecular Probes). Immunofluorescence was performed on Y1 cells attached to collagen/fibronectin coated coverslips. Mitochondria were stained using MitoTracker Red CMXRos (Molecular Probes) in fresh medium with incubation at 37° C. for 30 min prior to cell fixation. All cells were washed in PBS, fixed with 3% paraformaldehyde and permeabilised using 0.1% Triton X-100. Proteins were blocked in 2% BSA/PBST prior to antibody labeling. Primary and secondary antibodies were used at a 1:200 dilution in BSA/PBST and incubated for 30 min. DNA was counterstained using TO-PRO 3 (Molecular Probes) at a concentration of 1 μM. […] Alternatively, fluorescently labeled cells were examined using a Leica TCS SP1 confocal fluorescence microscope (Leica, Heidelberg, Germany) equipped with an Ar (488 nm) and two He/Ne (543 and 633 nm) laser lines. […]
Isolated human peripheral blood T cells were treated with MEME3-Arg11 peptide at different concentrations, and the location of PKARIα determined by immunofluorescence.

Assay [3] deals with T1, RI(Δ1-24) (Bos taurus, UniProt P00514).
T1 construct: made in house; host or cells: E. coli BL21 (B121 [sic])
Briefly: Co-precipitation with recombinant RI(Δ1-24) added to HEK293 lysate. Type of assay: binding. The conditions noted are these: recombinant protein added to cell lysate. From the text:
Constructs and mutagenesis. Oligonucleotides with the following sequences were directionally cloned into EGFP-C (Clonetech) vector via TOPO blunt vector (Invitrogen) by using SalI and BamHI sites. MEME3(+), 5′-GTC GAC-CTGGAGCAGTACGCCAACCAGCTGGCCGACCAGATCATCAAGGAGGCCACCGAG-GGA TCC-3′; MEME3 (−), 5′-GGA TCC-CTCGGTGGCCTCCTTGATGATCTGGTCGGCCAGCTGGTTGGCGTACTGCTCCAG-GTC GAC-3′; Scramble (+), 5′-GTCGACATCGAGAAGGAGCTGGCCCAGCAGTACCAGAACGCCGACGCCATCACCCTGGAGGGATCC-3′; and Scramble (−), 5′-GGATCCCTCCAGGGTGATGGCGTCGGCGTTCTGGTACTGCTGGGCCAGCTCCTTCTCGATGTCGAC-3′. The site specific mutation, A98S, was made in RI wild type cloned into pRSETB (Invitrogen) using a site specific-mutagenesis kit (Stratagene). RI( 1-11), RI(Δ1-15) and RI(Δ1-24) mutants were made by PCR and re-cloned into pRSETB (Invitrogen). All constructs were confirmed by sequencing.
HEK293 cells at […] were transfected with ten μg of plasmid DNA (GFP, GFP-MEME3 or GFP-Scrambled MEME3) by using the CaCl2 method. […]
In FIG. 4D, the co-precipitation of recombinant full length and N-truncated RI (added to the cell lysate) with MEME3 was detected by immunoblotting using a monoclonal antibody against RI (lane 2-4).

“Also recorded” adds a separate entry of the source.

T1 sequence (P00514 25-380, stated change not applied): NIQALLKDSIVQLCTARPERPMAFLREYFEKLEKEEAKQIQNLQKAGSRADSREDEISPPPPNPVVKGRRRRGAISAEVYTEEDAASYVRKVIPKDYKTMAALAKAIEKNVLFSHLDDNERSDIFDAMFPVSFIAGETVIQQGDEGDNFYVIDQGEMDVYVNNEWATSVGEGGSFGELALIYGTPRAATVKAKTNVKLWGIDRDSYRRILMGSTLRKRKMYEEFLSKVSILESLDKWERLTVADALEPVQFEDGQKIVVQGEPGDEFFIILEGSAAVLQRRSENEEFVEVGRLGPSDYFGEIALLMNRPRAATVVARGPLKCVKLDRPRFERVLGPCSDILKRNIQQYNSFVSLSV

With “LEQYANQLADQIIKEATERRRRRRRRRrr [MEME3-Arg11]”, the “reduction of Csk-PS364 level” value in assay [1] is 70%. In addition, the “displacement of RI from T cell membranes / cell periphery” value in assay [2] was “Displacement of RI from T cell membranes was observed; also recorded: displaced and delocalized”.

Consider `CC[C@H](C)[C@H](NC(=O)[C@H](CCC(N)=O)NC(=O)[C@H](CC(=O)O)NC(=O)[C@H](C)NC(=O)[C@H](CC(C)C)NC(=O)[C@H](CCC(N)=O)NC(=O)[C@H](CC(N)=O)NC(=O)[C@H](C)NC(=O)[C@H](Cc1ccc(O)cc1)NC(=O)[C@H](CCC(N)=O)NC(=O)[C@H](CCC(=O)O)NC(=O)[C@@H](N)CC(C)C)C(=O)N[C@H](C(=O)N[C@@H](CCCCN)C(=O)N[C@@H](CCC(=O)O)C(=O)N[C@@H](C)C(=O)N[C@H](C(=O)N[C@@H](CCC(=O)O)C(=O)N[C@@H](CCCCNC(=O)c1ccc2c(c1)C(=O)OC21c2ccc(O)cc2Oc2cc(O)ccc21)C(N)=O)[C@@H](C)O)[C@@H](C)CC` [MEME3], for which the “co-precipitation with RI(Δ1-24)” value in assay [3] is given as “did not precipitate MEME3”.

The record behind these values is US20080248008A1, “Inhibitors of Protein Kinase a Anchoring” (priority 2004, published 2008).
